{"source": "paper PMC13070491", "about": "“Single-nucleus transcriptomics, pharmacokinetics, and pharmacodynamics of CDK4/6 and mTOR inhibition in a Phase 0/1 trial of recurrent high-grade glioma” (Neuro-Oncology, 2025)", "key": {"[1]": {"conditions": "900 mg QD 5 days monotherapy; ref Tien A, Clin Cancer Res 2019; cited from earlier work"}, "[2]": {"test_system": "pRb", "assay": "IHC of tumor tissue, pRb positive cells, archival vs Phase 0 surgical sample", "type": "in vivo, human", "conditions": "IDH-wildtype patients n = 20; paired t-test P = .25; 5 days ribociclib + everolimus"}, "[3]": {"test_system": "CDK4/6", "conditions": "threshold basis for Phase 1 expansion; no reference given; read-out: biochemical IC50; cited from earlier work"}, "[4]": {"test_system": "malignant cells of recurrent IDH-wildtype glioblastoma", "assay": "Single nucleus RNA sequencing of tumor samples, malignant cell state proportions vs standard-of-care cohorts", "type": "in vivo, human", "description": "Count matrices were loaded into R using Seurat's (version 4.3.0) Read10X function. Cells were filtered based on the following quality control criteria: number of genes detected greater than 500 and fewer than 10 000; maximum percentage of mitochondrial genes of 5%. DoubletFinder was used to identify potential nuclei doublets, which were filtered out.[17] The expression data were processed by normalization, scaling, PCA based on genes differentially expressed across brain cell types, Harmony batch correction for sample preparation batch,[18] Uniform Manifold Approximation and Projection (UMAP), and clustering using the Louvain algorithm, and resolution set to 0.6. Cell type annotation was based on gene expression markers for each cluster and confirmed via mapping to a normal reference brain atlas (Azimuth). […] (https://github.com/broadinstitute/[…]) was used to confirm malignant status based on the presence of copy number alterations. […] HMM-predicted copy number alteration levels were extracted to define malignant and nonmalignant cells based on the following approach. […] Putative malignant cells not meeting this threshold were labelled as unresolved and excluded. Cells assigned to a nonmalignant gene expression cluster with 25% of chromosome 7 inferred gain and/or 25% of chromosome 10 inferred loss were labelled as unresolved and excluded. Samples with fewer than 25 malignant cells were excluded from malignant state analysis. […] Cell cycle status was assigned independent of […] cell state. Cells were classified as AC-like, etc., along with its cell cycle status-cycling or not."}}, "data": [{"smiles": "CN(C)C(=O)c1cc2cnc(Nc3ccc(N4CCNCC4)cn3)nc2n1C1CCCC1", "note": "[Ribociclib, ribociclib]", "values": [{"measurement": "Total Ribociclib concentration, CSF, Maximum", "setting": "[1]", "result": 838, "unit": "nM"}, {"measurement": "Total Ribociclib concentration, CSF, Median", "setting": "[1]", "result": 267, "unit": "nM"}, {"measurement": "Total Ribociclib concentration, CSF, Minimum", "setting": "[1]", "result": 43, "unit": "nM"}, {"measurement": "Total Ribociclib concentration, Enhancing tumor, Maximum", "setting": "[1]", "result": 71.76, "unit": "µM"}, {"measurement": "Total Ribociclib concentration, Enhancing tumor, Median", "setting": "[1]", "result": 29.252, "unit": "µM"}, {"measurement": "Total Ribociclib concentration, Enhancing tumor, Minimum", "setting": "[1]", "result": 6.586, "unit": "µM"}, {"measurement": "Total Ribociclib concentration, Non-enhancing tumor, Maximum", "setting": "[1]", "result": 31.424, "unit": "µM"}, {"measurement": "Total Ribociclib concentration, Non-enhancing tumor, Median", "setting": "[1]", "result": 12.176, "unit": "µM"}, {"measurement": "Total Ribociclib concentration, Non-enhancing tumor, Minimum", "setting": "[1]", "result": 452, "unit": "nM"}, {"measurement": "Unbound Ribociclib concentration, CSF, Maximum", "setting": "[1]", "result": 645, "unit": "nM"}, {"measurement": "Unbound Ribociclib concentration, CSF, Median", "setting": "[1]", "result": 152, "unit": "nM"}, {"measurement": "Unbound Ribociclib concentration, CSF, Minimum", "setting": "[1]", "result": 18, "unit": "nM"}, {"measurement": "Unbound Ribociclib concentration, Enhancing tumor, Maximum", "setting": "[1]", "result": 4.743, "unit": "µM"}, {"measurement": "Unbound Ribociclib concentration, Enhancing tumor, Median", "setting": "[1]", "result": 1644, "unit": "nM"}, {"measurement": "Unbound Ribociclib concentration, Enhancing tumor, Minimum", "setting": "[1]", "result": 307, "unit": "nM"}, {"measurement": "Unbound Ribociclib concentration, Non-enhancing tumor, Maximum", "setting": "[1]", "result": 1295, "unit": "nM"}, {"measurement": "Unbound Ribociclib concentration, Non-enhancing tumor, Median", "setting": "[1]", "result": 482, "unit": "nM"}, {"measurement": "change in phosphorylated Rb, surgical samples vs matched archival tissue", "setting": "[2]", "result": "nonsignificant decrease"}, {"measurement": "IC50", "setting": "[3]", "result": 40, "unit": "nM"}, {"measurement": "proportion of malignant cells actively cycling vs standard treatment cohorts (snRNAseq)", "setting": "[4]; n = 17 ribociclib-exposed vs CARE n = 57 and Wang et al. n = 31, P = 3.2E-03 and P = 2.0E-04", "result": "lower proportion"}, {"measurement": "neural progenitor-like (NPC-like) state vs standard treatment cohorts (snRNAseq)", "setting": "[4]; n = 17 ribociclib-exposed vs CARE n = 57 and Wang et al. n = 31, P = 5.8E-05, P = 1.8E-03", "result": "decrease"}, {"measurement": "fraction of NPC-like malignant cells, Phase 2 (104 days) vs Phase 0 (5-day) sample of one patient", "setting": "[4]; ribociclib monotherapy, single case, snRNAseq", "result": "reduced fraction"}]}]}
